Like-named read-outs stand apart in the source and are kept apart here. *1 amine or outer side, *2 acyl side, *3 side chain or, on linkers, in order; H or OH if unused. Where a SMILES comes first, the peptide text is derived from it. Bridges are numbered along the chain shown (N, C = ends). Where no end group is shown, it is not given here. Side-chain parts run from the residue outwards. [ ]: non-standard residue; d: D form. The star is where a group is joined. ξ: configuration not given here. C10 = S-[42-(cholest-5-en-3-yloxy)-2,42-dioxo-6,9,12,15,18,21,24,27,30,33,36,39-dodecaoxa-3-azadotetracont-1-yl]-L-cysteine, Cys(oxa12-cholesterol), CC(C)CCC[C@@H](C)[C@H]1CC[C@H]2[C@@H]3CC=C4C[C@@H](OC(=O)CCOCCOCCOCCOCCOCCOCCOCCOCCOCCOCCOCCOCCNC(=O)CSC[C@H](N[*:1])C(=O)[*:2])CC[C@]4(C)[C@H]3CC[C@]12C; X1 = CC(C)CCCC(C)[C@H]1CCC2C3CC=C4C[C@@H](OC(=O)CCOCCOCCOCCOCCOCCOCCOCCOCCOCCOCCOCCOCCNC(=O)C*)CC[C@]4(C)C3CC[C@@]21C; CH2CO2(3ξ-cholesteryl) = CC(C)CCC[C@@H](C)[C@H]1CC[C@H]2[C@@H]3CC=C4CC(OC(=O)C*)CC[C@]4(C)[C@H]3CC[C@]12C; γGlu = O=C(O)[C@H](CCC(=O)[*:2])N[*:1]; mPEG2 40kDa = C3 = Cys(mPEG)2 40 kDa; Palmitoyl = CCCCCCCCCCCCCCCC(=O)*; Met(O) = CS(=O)CC[C@H](N)C(=O)O; Nle = CCCC[C@H](N)C(=O)O; Ac4c = NC1(C(=O)O)CCC1; Aib = CC(C)(N)C(=O)O
How the values were obtained:
hGCGR = hGCGR (Homo sapiens, UniProt P47871); assay: fluorescence cell based cAMP assay, CHO cells stably expressing GCGR; conditions: for GCGR + 10% plasma (fold shift): EC50 with 10% plasma vs without
Sequence of hGCGR (P47871 26-477): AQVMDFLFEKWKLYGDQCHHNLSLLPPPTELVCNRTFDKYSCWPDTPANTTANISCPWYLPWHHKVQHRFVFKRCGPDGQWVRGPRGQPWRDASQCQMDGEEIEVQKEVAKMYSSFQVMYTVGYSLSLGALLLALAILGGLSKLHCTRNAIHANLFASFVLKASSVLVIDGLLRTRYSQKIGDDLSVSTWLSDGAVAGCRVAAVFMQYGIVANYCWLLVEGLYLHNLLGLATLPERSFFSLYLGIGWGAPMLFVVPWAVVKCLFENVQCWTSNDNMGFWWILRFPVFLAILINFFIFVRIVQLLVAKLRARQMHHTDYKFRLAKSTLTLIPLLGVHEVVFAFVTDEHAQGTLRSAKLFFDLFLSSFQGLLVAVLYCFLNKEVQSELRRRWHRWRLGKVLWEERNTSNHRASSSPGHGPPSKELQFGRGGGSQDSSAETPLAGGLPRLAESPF
Description: We initially screened peptides in fluorescence cell based assays that measure production of cyclic-AMP (cAMP), using CHO cell lines stably expressing either recombinant human GLP-1R or human GCGR. Determination of Mouse and human GLP-1R and GCGR Agonist Activity was essentially as follows. CHO cells stably expressing mouse or human GLP-1R or GCGR were grown in Iscove's Modified Dulbecco's Medium (IMDM), 10% FBS, 1 mM L-glutamine, penicillin-streptomycin (100 μ/mL) and 750 μg G418/mL for three-four days before harvesting using Enzymefree Dissociation Media (EFDM, Specialty Media). […] The assay was terminated with the addition of the LANCE kit Detection buffer as per the manufacturer's instructions. The plates were held an additional hour at room temperature, then increasing cAMP levels were detected by a decrease in TR-FRET signal as measured in an EnVision counter (PerkinElmer) in comparison to a standard curve of cAMP as per the manufacturer's instructions. Data were analyzed using the linear and nonlinear regression analysis software, GraphPad Prism.
The in vitro potencies shown in Table 10 or Table 11 were determined from the results of assays that were similar to either the cell-based cAMP assays described herein above (Table 10) or the cell-based cAMP assays described in International Published Application No. WO2008101017, which is incorporated herein in its entirety, in particular the cell-based cAMP assays described therein (Table 11).

[1] = pI of the peptide analogs

Compound | pI [1] | pI ([1]; Table 10) | other results
CCCC[C@H](NC(=O)[C@H](CC(C)C)NC(=O)[C@H](Cc1c[nH]c2ccccc12)NC(=O)[C@H](CCC(N)=O)NC(=O)[C@@H](NC(=O)[C@H](Cc1ccccc1)NC(=O)[C@H](CC(=O)O)NC(=O)[C@H](CCC(N)=O)NC(=O)[C@H](C)NC(=O)[C@H](CCCNC(=N)N)NC(=O)[C@H](CCCNC(=N)N)NC(=O)[C@H](CO)NC(=O)[C@H](CC(=O)O)NC(=O)[C@H](CC(C)C)NC(=O)[C@H](Cc1ccc(O)cc1)NC(=O)[C@H](CCCCN)NC(=O)[C@H](CO)NC(=O)[C@H](Cc1ccc(O)cc1)NC(=O)[C@H](CC(=O)O)NC(=O)[C@H](CO)NC(=O)[C@@H](NC(=O)[C@H](Cc1ccccc1)NC(=O)[C@@H](NC(=O)CNC(=O)[C@H](CCC(N)=O)NC(=O)C(C)(C)NC(=O)[C@@H](N)Cc1c[nH]cn1)[C@@H](C)O)[C@@H](C)O)C(C)C)C(=O)N[C@@H](CC(N)=O)C(=O)N[C@H](C(=O)N[C@@H](CCCCN)C(=O)N[C@@H](CCCNC(=N)N)C(=O)N[C@@H](CC(N)=O)C(=O)N[C@@H](CCCNC(=N)N)C(=O)N[C@@H](CC(N)=O)C(=O)N[C@@H](CC(N)=O)C(=O)N[C@H](C(=O)N[C@@H](C)C(=O)N[C@@H](CSCC(=O)OC1CC[C@@]2(C)C(=CC[C@H]3[C@@H]4CC[C@H]([C@H](C)CCCC(C)C)[C@@]4(C)CC[C@@H]32)C1)C(N)=O)[C@@H](C)CC)[C@@H](C)O (stereo partly drawn) [OXM212] (H-H[Aib]QGTFTSDYSKYLDSRRAQDFVQWL[Nle]NTKRNRNNIAC(CH2CO2(3ξ-cholesteryl))-NH2; N-terminus assumed) | – | – | GCGR + 10% plasma (fold shift) (hGCGR): (92x) fold
CC[C@H](C)[C@H](NC(=O)[C@H](CC(N)=O)NC(=O)[C@H](CC(N)=O)NC(=O)[C@H](CCCNC(=N)N)NC(=O)[C@H](CC(N)=O)NC(=O)[C@H](CCCNC(=N)N)NC(=O)[C@H](CCCCN)NC(=O)[C@@H](NC(=O)[C@H](CC(N)=O)NC(=O)[C@H](CCOC)NC(=O)[C@H](CC(C)C)NC(=O)[C@H](Cc1c[nH]c2ccccc12)NC(=O)[C@H](CCC(N)=O)NC(=O)[C@@H](NC(=O)[C@H](Cc1ccccc1)NC(=O)[C@H](CC(=O)O)NC(=O)[C@H](CCC(N)=O)NC(=O)[C@H](C)NC(=O)[C@H](CCCNC(=N)N)NC(=O)[C@H](CCCNC(=N)N)NC(=O)[C@H](CO)NC(=O)[C@H](CC(=O)O)NC(=O)[C@H](CC(C)C)NC(=O)[C@H](Cc1ccc(O)cc1)NC(=O)[C@H](CCCCN)NC(=O)[C@H](CO)NC(=O)[C@H](Cc1ccc(O)cc1)NC(=O)[C@H](CC(=O)O)NC(=O)[C@H](CO)NC(=O)[C@@H](NC(=O)[C@H](Cc1ccccc1)NC(=O)[C@@H](NC(=O)CNC(=O)[C@H](CCC(N)=O)NC(=O)C(C)(C)NC(=O)[C@@H](N)Cc1c[nH]cn1)[C@@H](C)O)[C@@H](C)O)C(C)C)[C@@H](C)O)C(=O)N[C@@H](C)C(=O)N[C@@H](CSCC(=O)OC1CC[C@@]2(C)C(=CC[C@H]3[C@@H]4CC[C@H]([C@H](C)CCCC(C)C)[C@@]4(C)CC[C@@H]32)C1)C(N)=O (stereo partly drawn) [OXM213] | – | – | GCGR + 10% plasma (fold shift) (hGCGR): (44x) fold
CSCC[C@H](NC(=O)[C@H](CC(C)C)NC(=O)[C@H](Cc1c[nH]c2ccccc12)NC(=O)[C@H](CCC(N)=O)NC(=O)[C@@H](NC(=O)[C@H](Cc1ccccc1)NC(=O)[C@H](CC(=O)O)NC(=O)[C@@H]1CCCCNC(=O)CC[C@H](NC(=O)[C@H](CC(=O)O)NC(=O)[C@H](CC(C)C)NC(=O)[C@H](Cc2ccc(O)cc2)NC(=O)[C@H](CCCCN)NC(=O)[C@H](CO)NC(=O)[C@H](Cc2ccc(O)cc2)NC(=O)[C@H](CC(=O)O)NC(=O)[C@H](CO)NC(=O)[C@@H](NC(=O)[C@H](Cc2ccccc2)NC(=O)[C@@H](NC(=O)CNC(=O)[C@H](CCC(N)=O)NC(=O)[C@@H](CO)NC(=O)[C@@H](N)Cc2c[nH]cn2)[C@@H](C)O)[C@@H](C)O)C(=O)N[C@@H](CCCNC(=N)N)C(=O)N[C@@H](CCCNC(=N)N)C(=O)N[C@@H](C)C(=O)N1)C(C)C)C(=O)N[C@@H](CC(N)=O)C(=O)N[C@H](C(=O)N[C@@H](CCCCN)C(=O)N[C@@H](CCC(=O)N[C@@H](CCC(=O)N[C@@H](CSCC(=O)NCCOCCOCCOCCOCCOCCOCCOCCOCCOCCOCCOCCOCCC(=O)O[C@H]1CC[C@@]2(C)C(=CCC3C2CC[C@@]2(C)C3CC[C@@H]2C(C)CCCC(C)C)C1)C(=O)O)C(=O)O)C(=O)O)[C@@H](C)O (stereo partly drawn) [OXM392] (H-H[dS]QGTFTSDYSKYLDERRAKDFVQWLMNTK[γGlu][γGlu]C(X1)-OH; lactam 16-20) | about 5.4 | 5.4 | –
CCCCCCCCCCCCCCCC(=O)N[C@@H](CCC(=O)NCCCC[C@H](NC(=O)[C@H](CC(=O)O)NC(=O)[C@H](CO)NC(=O)[C@@H](NC(=O)[C@H](Cc1ccccc1)NC(=O)[C@@H](NC(=O)CNC(=O)[C@H](CCC(N)=O)NC(=O)[C@@H](CO)NC(=O)[C@@H](N)Cc1c[nH]cn1)[C@@H](C)O)[C@@H](C)O)C(=O)N[C@@H](CO)C(=O)N[C@@H](CCCCN)C(=O)N[C@@H](Cc1ccc(O)cc1)C(=O)N[C@@H](CC(C)C)C(=O)N[C@@H](CC(=O)O)C(=O)N[C@@H](CCC(=O)O)C(=O)N[C@@H](CCCNC(=N)N)C(=O)N[C@@H](CCCNC(=N)N)C(=O)N[C@@H](C)C(=O)N[C@@H](CCC(N)=O)C(=O)N[C@@H](CC(=O)O)C(=O)N[C@@H](Cc1ccccc1)C(=O)N[C@H](C(=O)N[C@@H](CCC(N)=O)C(=O)N[C@@H](Cc1c[nH]c2ccccc12)C(=O)N[C@@H](CC(C)C)C(=O)N[C@@H](CCSC)C(=O)N[C@@H](CC(N)=O)C(=O)N[C@H](C(=O)N[C@@H](CCCCN)C(=O)N[C@@H](CCC(N)=O)C(=O)O)[C@@H](C)O)C(C)C)C(=O)O [OXM414] (H-H[dS]QGTFTSDK([γGlu-Palmitoyl])SKYLDERRAQDFVQWLMNTKQ-OH; N-terminus and C-terminus assumed) | – | 5.4 | –
CCCCCCCCCCCCCCCC(=O)N[C@@H](CCC(=O)N[C@@H](CCC(=O)NCCCC[C@H](NC(=O)[C@H](CC(=O)O)NC(=O)[C@H](CO)NC(=O)[C@@H](NC(=O)[C@H](Cc1ccccc1)NC(=O)[C@@H](NC(=O)CNC(=O)[C@H](CCC(N)=O)NC(=O)C(C)(C)NC(=O)[C@@H](N)Cc1c[nH]cn1)[C@@H](C)O)[C@@H](C)O)C(=O)N[C@@H](CO)C(=O)N[C@@H](CCCCN)C(=O)N[C@@H](Cc1ccc(O)cc1)C(=O)N[C@@H](CC(C)C)C(=O)N[C@@H](CC(=O)O)C(=O)N[C@@H](CCC(=O)O)C(=O)N[C@@H](CCCNC(=N)N)C(=O)N[C@@H](CCCNC(=N)N)C(=O)N[C@@H](C)C(=O)N[C@@H](CCC(N)=O)C(=O)N[C@@H](CC(=O)O)C(=O)N[C@@H](Cc1ccccc1)C(=O)N[C@H](C(=O)N[C@@H](CCC(N)=O)C(=O)N[C@@H](Cc1c[nH]c2ccccc12)C(=O)N[C@@H](CC(C)C)C(=O)N[C@@H](CCSC)C(=O)N[C@@H](CC(N)=O)C(=O)N[C@H](C(=O)N[C@@H](CCCCN)C(N)=O)[C@@H](C)O)C(C)C)C(=O)O)C(=O)O [OXM416] (H-H[Aib]QGTFTSDK([γGlu-γGlu-Palmitoyl])SKYLDERRAQDFVQWLMNTK-NH2) | – | 5.5 | –
H-Acb-QGTFTSDYSKYLDERRAKDFVQWLMNTK-γE-γE-C10-COOH (lactam bridge between E and K) (H-H[Ac4c]QGTFTSDYSKYLDERRAKDFVQWLMNTK[γGlu][γGlu][C10]-OH; lactam 16-20) [OXM398] | about 5.4 | – | –
HsQGTFTSDYSSYLDSRRAQDFVQWLMNTK-γE-C4-COOH [OXM355] | about 5 | – | –
HαQGTFTSDYC3KYLDSRRAQDFVQWLmNTKRNRNNIA-CONH2 (H[Aib]QGTFTSDYC(mPEG2 40kDa)KYLDSRRAQDFVQWL[Met(O)]NTKRNRNNIA-NH2; not fully specified; printed as HαQGTFTSDYC3KYLDSRRAQDFVQWLmNTKRNRNNIA-CONH2) [OXM121] | – | – | Receptor Selectivity (hGCGR; GLP-1R/GCGR, Table 6): 0/0
